The record followed here is patent publication EP0333676A2, “Use of 1-(2-ethoxy-2-(3'-pyridyl)ethyl)-4-(2'methoxy-phenyl)piperazine, for the preparation of pharmaceutical compositions useful for the treatment of lower urinary tract disfunctions and benign prostatic hypertrophy” (MALESCI ISTITUTO FARMACOBIOLOGICO S.p.A., priority 1988, dated 1989).

The subject of one data set is alpha₁-adrenoceptor. Nature of the data set: Antagonism of the phenylephrine concentration-response curve in isolated rat proximal urethra. The conditions noted are these: versus phenylephrine, compound at 1 nM, rightward parallel displacement of the curve. How it is done:
(§1) In the "in vitro" studies, male albino rats, Wistar Nossan strain, weighing 300-350 g were used. Animals were sacrificed by cervical dislocation and the proximal urethra was quickly excised, cleaned of connective tissues and then suspended in an organ bath and tied to an isometric force transducer, under resting tension of 0.5 g. Experiments were performed at 37°C and the bathing medium (gassed with 95% O₂ and 5% CO₂) had the following composition (mM): NaCl 119, KCl 4.7, MgSO₄ 1.5, […], CaCl₂ 2.5, NaHCO₃ 25 and glucose 11. Experiments were carried out after 60 min equilibration period.
(§2) In a first group of experiments a cumulative concentration response curve to alpha₁-adrenoceptor selective agonist, phenylephrine, was obtained in control conditions or in presence of the compound of invention (1 nM). The compound of invention (1 nM) produced a rightward parallel displacement of concentration response curve to phenylephrine with a pA₂ of 9.18±0.12. In another set of experiments urethral contractions were obtained by means of field stimulation (20 Hz, 0.5 msec, maximal voltage; trains of 5 sec every 4 min). These contractions (obtained in a medium additionated with atropine 1 uM) were TTX-sensitive and probably due to stimulation of adrenergic fibers. […]

Data set [1] has as its system urethane anaesthetized normotensive rats. Nature of the data set: Hypotensive effect in urethane-anaesthetized normotensive rats. The class given is in vivo, rat. The following applies: i.v. administration. As to the method: (§3) Male albino rats, Wistar strain, weighting 300-350 g, were treated for 2 weeks with testosterone propionate at the dose of 3 mg/Kg s.c.. Afterwards animals were anaesthetized with urethane 40% s.c. (0.3 ml/hg) and then transvescical cystometrogram were perfused according to the method of Maggi et al. (J. Pharmacol. Meth. 15, 157; 1986). Testosterone-treated animals were characterized by the appearance of frequent, scarcely effective, micturition complexes and by a very high residual volume (about double than controls). […] It is important to underline that in urethane anaesthetized normotensive rats, i.v. administration of compound of invention exerts an hypotensive effect in the range 3-100 ug/kg.

Data set [2] deals with rat chronically treated with testosterone. Kind of data set: Transvesical cystometrogram in rats chronically treated with testosterone (urethral outflow obstruction). The class given is in vivo. The conditions noted are these: 0.1-3 ug/Kg i.v.; rats treated for 2 weeks with testosterone propionate 3 mg/Kg s.c.; urethane anaesthesia. How it is done: (§4) In the "vivo" studies two experimental models characterized by urethral outflow obstruction were used: a) rat chronically treated with testosterone and b) rat acutely treated with hexamethonium.
as §3

The test system of a further data set is isolated urethra of rat. Kind of data set: Inhibition of field stimulation-induced contractions of isolated rat proximal urethra. The following applies: inhibition of urethral contractions by field stimulation (20 Hz, 0.5 msec, maximal voltage), atropine 1 uM in medium, range 1 pM-1 nM, printed interval (0.09-0.18), read-out: EC₅₀. As to the method: as §1, §2

Data set [3] relates to rat acutely treated with hexamethonium. Nature of the data set: Transvesical cystometrogram in rats acutely treated with hexamethonium (urethral outflow obstruction). The following applies: pretreatment at doses lower than 3 ug/Kg i.v. The class given is in vivo. How it is done:
as §4
Urethane-anaesthetized male albino rats, Wistar strain weighing 300-350 g, were used.
Administration of hexamethonium (40 mg/Kg i.v.) 5 minutes before start of transvescical cystometrogram produced in about 75% of animals an overflow incontinence coupled to high values of intravescical pressure.

Each structure is given as a SMILES string.

Turning to `CCOC(CN1CCN(c2ccccc2OC)CC1)c1cccnc1` (racemic) [compound of invention, 1-(2-ethoxy-2-(3′-pyridyl)ethyl)-4-(2′-methoxy-phenyl)piperazine], in the data set on alpha₁-adrenoceptor, the pA₂ is given as 9.18±0.12. Besides, in data set [1], the “dose range exerting an hypotensive effect” value was in the range of 3 to 100 µg/kg. In addition, in data set [2], the voiding efficiency result is “clear, objective and prompt beneficial action on the voiding efficiency”. In addition, in the data set on isolated urethra of rat, the EC50 turned out to be 0.13 nM. Also, the intravescical pressure result in data set [3] (hexamethonium 40 mg/Kg i.v.) is on record as “lower intravescical pressure values”. The overflow incontinence result in data set [3] (hexamethonium 40 mg/Kg i.v. (about 75% of animals incontinent without pretreatment)) was “never produced overflow incontinence”.
